Experimental findings from ChEMBL document CHEMBL1149116, “2-Anilino-4-(thiazol-5-yl)pyrimidine CDK inhibitors: synthesis, SAR analysis, X-ray crystallography, and biological activity” (J Med Chem, 2004) are described below.

SMILES strings stand for the structures.

The target of test [1] is Cyclin-dependent kinase 2 (Homo sapiens, UniProt P24941).
Test [2] has as its target Cyclin-dependent kinase 4 (Homo sapiens, UniProt P11802).
Description: Inhibitory activity against human CDK4 (Cyclin dependent kinase 4)

Cyclin-dependent kinase 4, sequence (P11802 whole entry): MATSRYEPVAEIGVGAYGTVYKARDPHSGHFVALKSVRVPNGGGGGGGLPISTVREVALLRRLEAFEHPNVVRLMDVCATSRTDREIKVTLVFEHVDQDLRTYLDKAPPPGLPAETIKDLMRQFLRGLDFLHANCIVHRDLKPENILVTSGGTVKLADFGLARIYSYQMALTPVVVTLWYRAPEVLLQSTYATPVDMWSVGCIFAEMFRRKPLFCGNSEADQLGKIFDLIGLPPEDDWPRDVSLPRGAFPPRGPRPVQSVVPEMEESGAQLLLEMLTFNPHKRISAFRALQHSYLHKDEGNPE

For orientation: Ki means the dissociation constant of the complex between target and ligand, obtained from inhibition or displacement. A high value points to weaker binding. With `Cc1nc(C)c(-c2ccnc(Nc3ccccc3)n2)s1`, the figures for the inhibition constant (Ki) in test [1] and in test [2] were 80 nM and 2600 nM, respectively.

Turning to `CCNc1nc(C)c(-c2ccnc(Nc3cccc(O)c3)n2)s1`, the inhibitory constant (Ki) in test [1] is above 10000 nM; in test [2], above 20000 nM.

Consider `Cc1nc(C)c(-c2ccnc(Nc3ccccc3F)n2)s1`, for which the Ki in test [1] and in test [2] was 1200 nM throughout.

In the case of `Cc1nc(C)c(-c2ccnc(N(C)c3cccc([N+](=O)[O-])c3)n2)s1`, the inhibitory constant (Ki) in test [1] and in test [2] was above 20000 nM each time.

In the case of `Cc1nc(-c2ccccn2)sc1-c1ccnc(Nc2cccc([N+](=O)[O-])c2)n1`, the Ki in test [1] and in test [2] was above 20000 nM in each case.

Regarding `Cc1nc(N)sc1-c1ccnc(Nc2ccc(O)cc2)n1`, the Ki in test [1] came to 30 nM; in test [2], 320 nM.

Take `Cc1nc(C)c(-c2ccnc(Nc3cccc(F)c3)n2)s1`: the inhibitory constant (Ki) in test [1] is 100 nM; in test [2], 900 nM.

`Cc1nc(C)c(-c2ccnc(N(C)C)n2)s1`: the Ki in test [1] and in test [2] was above 20000 nM throughout.

Consider `Cc1nc(C)c(-c2ccnc(Nc3ccccc3Cl)n2)s1`, for which the inhibitory constant (Ki) in test [1] and in test [2] was above 20000 nM throughout.

For `CNc1nc(C)c(-c2ccnc(Nc3cccc(O)c3)n2)s1`, the results for the Ki in test [1] and in test [2] were 110 nM and 370 nM, respectively.

As for `Cc1nc(C)c(-c2ccnc(Nc3ccc(O)cc3)n2)s1`, the figures for the Ki in test [1] and in test [2] were 140 nM and 320 nM, respectively.

For `Cc1nc(C)c(-c2ccnc(Nc3cccc(Cl)c3)n2)s1`, the inhibitory constant (Ki) in test [1] is 670 nM; in test [2], 9400 nM.

With `Cc1nc(C)c(-c2ccnc(Nc3ccc(Cl)cc3)n2)s1`, the inhibition constant (Ki) in test [1] was 2500 nM; in test [2], above 20000 nM.

Take `Cc1nc(N(C)C)sc1-c1ccnc(Nc2cccc([N+](=O)[O-])c2)n1`: the inhibition constant (Ki) in test [1] came out at 60 nM; in test [2] it was 5300 nM.

On to `CNc1nc(C)c(-c2ccnc(Nc3cccc([N+](=O)[O-])c3)n2)s1`, for which the Ki in test [1] came out at 800 nM; in test [2], 1600 nM.

Turning to `CNc1nccc(-c2sc(C)nc2C)n1`, the inhibition constant Ki in test [1] and in test [2] was above 20000 nM each time.

For `Cc1nc(C)c(-c2ccnc(Nc3cccc(C#N)c3)n2)s1`, the inhibition constant Ki stood at 300 nM in test [1] and 480 nM in test [2].

For the compound `Cc1nc(C)c(-c2ccnc(Nc3cccc(C(F)(F)F)c3)n2)s1`, the Ki in test [1] and in test [2] was above 20000 nM each time.

In turn, `Cc1nc(C)c(-c2ccnc(N)n2)s1` had an inhibitory constant (Ki) in test [2] of 16000 nM. In other words, the double-digit micromolar range.

With `Cc1nc(C)c(-c2ccnc(Nc3cccc(N)c3)n2)s1`, the figures for the inhibition constant (Ki) in test [1] and in test [2] were 400 nM and 10600 nM, respectively.

For the compound `Cc1nc(C)c(-c2ccnc(Nc3ccc([N+](=O)[O-])cc3)n2)s1`, the values for the inhibition constant (Ki) in test [1] and in test [2] were 4100 nM and above 20000 nM, respectively.

Take `Cc1nc(C)c(-c2ccnc(Nc3ccccc3C(F)(F)F)n2)s1`: the inhibition constant Ki in test [1] and in test [2] was above 20000 nM in each case.
